From patent US8946302B2, “Selective sigma-1 receptor ligands” (Wisconsin Alumni Research Foundation, priority 2008, dated 2015)
Where “and” joins values, the source holds several entries; their conditions need not be identical. Equal values may be shown once. Read-outs that look alike come from different tables or passages of the source. Marks after values point to notes of the source that are not given here.

Tests used:
sigma-1 receptor [1] = biological target: T1, sigma-1 receptor (Cavia porcellus, UniProt Q60492); experiment: Competition assay against (+)-[3H]-pentazocine, trace amines; format: binding; design: from tissue
T1 sequence (Q60492 whole entry): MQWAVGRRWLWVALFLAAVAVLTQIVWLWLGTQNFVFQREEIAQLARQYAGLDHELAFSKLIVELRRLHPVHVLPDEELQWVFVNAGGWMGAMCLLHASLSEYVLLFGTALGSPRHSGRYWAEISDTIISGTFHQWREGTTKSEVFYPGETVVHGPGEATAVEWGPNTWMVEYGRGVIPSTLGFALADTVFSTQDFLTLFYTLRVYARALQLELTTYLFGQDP
Protocol: (§1) Competitive binding assays were performed as previously described (18) with the exception of testing new ligands shown in Table 4.

sigma-2 receptor [2] = biological target: T2, sigma-2 receptor (Rattus norvegicus, UniProt Q5U3Y7); experiment: Sigma-2 receptor competitive binding, trace amines; design: from tissue; host or cells: liver membranes (rat inferred)
T2 sequence (Q5U3Y7 1-176): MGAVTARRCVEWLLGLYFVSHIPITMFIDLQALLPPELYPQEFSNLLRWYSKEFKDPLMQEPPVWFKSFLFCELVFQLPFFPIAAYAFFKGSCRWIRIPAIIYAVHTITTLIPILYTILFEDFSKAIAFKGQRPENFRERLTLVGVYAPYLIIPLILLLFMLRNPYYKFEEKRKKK
Protocol: as §1

sigma-2 receptor [3] = biological target: T2, sigma-2 receptor; experiment: Sigma-2 competitive binding, [3H]-DTG with (+)-pentazocine, rat liver membranes (Example 6); design: from tissue; host or cells: rat liver membranes; settings: rat liver membranes, n = 3; read-out: Sigma2 KD values
Protocol: (§3) Minced frozen rat livers or guinea pig livers (65 g) were thawed in 100 mL homogenization buffer (10 mM phosphate buffer pH 7.4 containing 0.32M sucrose, 1 M MgSO4, 0.5 M EGTA, 1 mM phenylmethylsulphonyl fluoride (PMSF), 10 μg/mlleupeptin, 1 μg/ml pepstatin A, 10 μg/ml p-toluenesulfonyl-L-arginine methyl ester (TAME) and then homogenized on ice with a Brinkman polytron homogenizer (setting 6, 4 bursts of 10 second each) followed by a glass homogenizer (Teflon pestle by 6 slow passes at 3,000 rpm). The homogenized tissues were then centrifuged at 17,000 g for 10 minutes. The supernatants were re-centrifuged at 100,000 g for 1 hour. The microsomal pellets were resuspended in homogenization buffer, snap frozen with dry ice-ethanol, and stored at −80° C. at a final protein concentration of 20 mg/mL.
(§4) Assays for sigma-1 were performed using 10 nM (+)-[^3H]pentazocine in guinea pig liver homogenates (25 μg/well) incubated at 30° C. for 1 hour with several concentrations of competing ligands. After incubation, membranes were harvested on a 0.5% PEI-treated Whatman GF/B filters using a Brandel Cell Harvester. (+)-[^3H]pentazocine binding was determined by liquid scintillation counting. […] Serial concentrations of the compounds evaluated were added to the reactions for 45 minutes at 30° C. and the samples vacuum filtered through 0.5% polyethyleneimine (PEI) treated Whatman GF/B as described above to measure displacement of the radioligands from the sigma receptor subtypes.

sigma-1 receptor [4] = biological target: T1, sigma-1 receptor; experiment: Sigma-1 competitive binding, (+)-[3H]pentazocine, guinea pig liver membranes (Example 6); design: from tissue; host or cells: guinea pig liver membranes; settings: for Kd: guinea pig liver membranes, n = 3, read-out: Sigma 1 KD values;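 for all read-outs here: compounds tested over serial concentrations, 45 min incubation at 30 °C with membrane preparations, read-out is displacement of bound radioligand from the receptor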
Protocol: as §3, §4

σ-1 Sites = biological target: T3, σ-1 Sites (Cavia porcellus, UniProt Q60492); experiment: σ-1 sites radioligand binding, guinea pig liver membranes (Table 2); settings: for Ki: guinea pig liver membranes
T3 construct: from tissue
T3 sequence (Q60492 whole entry): as the sequence (Q60492 whole entry) above
Protocol: as §4

Kv 1.4 K+ channel = biological target: T4, Kv 1.4 K+ channel (Rattus norvegicus, UniProt P15385); experiment: Whole cell patch clamp of Kv 1.4 K+ channel co-expressed with sigma-1 receptor in HEK-293 cells; format: cell-based; settings: for EC50: HEK-293 co-expressing sigma-1 receptor, read-out: EC50 for inhibition of the Kv 1.4 K+ channel
T4 construct: expressed in transfected cells; host or cells: HEK-293, transient, pIRES KvS1R plus pEGFP
T4 sequence (Q9R0C9 whole entry partner): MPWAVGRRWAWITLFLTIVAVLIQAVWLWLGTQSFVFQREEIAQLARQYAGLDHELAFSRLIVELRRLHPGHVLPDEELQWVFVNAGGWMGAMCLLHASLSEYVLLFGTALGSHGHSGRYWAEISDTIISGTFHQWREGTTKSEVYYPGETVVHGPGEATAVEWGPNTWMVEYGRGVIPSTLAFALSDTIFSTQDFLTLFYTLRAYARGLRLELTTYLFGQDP
T4 sequence (P15385 whole entry): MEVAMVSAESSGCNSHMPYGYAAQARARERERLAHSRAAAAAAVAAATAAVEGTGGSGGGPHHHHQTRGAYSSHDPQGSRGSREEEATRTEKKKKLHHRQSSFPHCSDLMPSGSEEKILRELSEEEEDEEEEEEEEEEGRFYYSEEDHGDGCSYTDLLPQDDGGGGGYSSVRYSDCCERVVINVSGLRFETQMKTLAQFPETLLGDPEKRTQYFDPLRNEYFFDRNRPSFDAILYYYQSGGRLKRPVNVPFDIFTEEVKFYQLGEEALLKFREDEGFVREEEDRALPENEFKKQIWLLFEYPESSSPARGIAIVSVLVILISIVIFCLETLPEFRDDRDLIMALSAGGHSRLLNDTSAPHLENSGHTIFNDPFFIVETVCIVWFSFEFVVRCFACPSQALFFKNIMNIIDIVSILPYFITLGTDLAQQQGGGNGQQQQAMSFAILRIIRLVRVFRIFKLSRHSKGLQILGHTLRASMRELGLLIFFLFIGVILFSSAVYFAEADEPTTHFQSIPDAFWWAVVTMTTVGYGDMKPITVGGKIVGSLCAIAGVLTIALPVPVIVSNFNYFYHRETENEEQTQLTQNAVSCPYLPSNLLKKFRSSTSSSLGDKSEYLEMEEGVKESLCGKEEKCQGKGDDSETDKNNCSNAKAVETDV
Protocol: After transfection (36-48 hours), whole cell K^+ currents were recorded from GFP positive HEK cells under voltage clamp using standard patch clamp techniques, using patch pipettes filled with (in mM) 120 KCl, 10 NaCl, 10 EGTA, 2 MgCl2, 2-4 MgATP, 0.3 NaGTP, 10 HEPES, pH 7.3.
The external solution was composed of (in mM) 130 NaCl, 4 KCl, 2 CaCl2, 1 MgCl2, 10 HEPES, pH 7.4 at room temperature (22-24° C.). Patch pipettes with resistances from 1-3 MΩ were fabricated from borosilicate glass (Garner Glass Co., CA). K^+ channels were activated by voltage step from −120 mV to 20 mV for 250 ms. Axopatch 200B, patch clamp amplifier interfaced to a PC running PCLAMP 7 (Axon Instruments) was used for data acquisition. Drugs were applied by a gravity feed system at a flow rate of 1-3 mL/minute. Series resistance compensation was used for cells with series resistance values higher than 10 MΩ. A 80-90% series resistance compensation was achieved on such cells.
K^+ currents were recorded using whole cell patch clamp technique.

σ-2 Sites = biological target: T5, σ-2 Sites (Rattus norvegicus, UniProt Q5U3Y7); experiment: σ-2 sites radioligand binding, rat liver membranes (Table 2)
T5 construct: from tissue
T5 sequence (Q5U3Y7 1-176): T2 sequence (Q5U3Y7 1-176)
Protocol: as §4

[5] = biological target: T6, purified sigma-1 receptor (Cavia porcellus, UniProt Q60492); experiment: Competitive displacement of [3H]-(+)-pentazocine at the pure sigma-1 receptor; format: binding, guinea pig; settings: read-out: Ki Pure σ-1R
T6 construct: made in house; host or cells: E. coli BL21 DE3
T6 sequence (Q60492 whole entry): as the sequence (Q60492 whole entry) above
Protocol: A guinea pig sigma-1 receptor was purified as previously described (Ramachandran et al., Protein Expr. Purif., 2007. 51(2): 283-92). The pMal P2X plasmid (New England Biolabs) encoding the guinea pig sigma-1 receptor on the C-terminus of the E. coli Maltose Binding Protein was used for purification. The sigma-1 receptor on its C-terminus carried a hexa-histadine epitope tag. Protein was expressed in the E. coli strain BL21 DE3 (Novagen) with 0.6 mM IPTG. The E. coli pellet was sonicated and centrifuged at 100,000 g for 1 hour to separate the particulate and soluble fractions. The particulate fraction was extracted with Triton X-100, centrifuged and the extract was loaded onto an amylose resin (New England Biolabs, E-802). After washing the resin with buffer containing 0.5% Triton X-100, the MBP-sigma-1 receptor fusion protein was eluted with buffer containing 10 mM maltose.
The MBP-sigma-1-receptor fusion protein was cleaved with Factor Xa protease (Novagen) at room temperature for 24-48 hours and the cleavage was monitored with SDS-polyacrylamide gel electrophoresis. The sigma-1 receptor from the Factor Xa cleavage was purified with a HIS-Select HC Nickel affinity gel (Sigma-Aldrich P6611) in a batch format. The resin was washed with buffer containing 0.5% Triton X-100 detergent and the beads were separated by a brief centrifugation at 4000 rpm in a microcentrifuge. After washing to remove MBP, the pure sigma-1 receptor was eluted in buffer containing 250 mM imidazole.
To remove the undigested MBP-sigma-1 receptor fusion protein that is carried over in the Ni^2+ purification, the eluate from the Ni^2+ purification was incubated with Anti-MBP antibody conjugated to agarose (Vector Laboratories, Burlingame, Calif.) at 4° C. for 18-24 hours. The beads were separated by centrifugation and the supernatant contained the pure sigma-1 receptor.
Competition ligand binding to the pure sigma-1 receptor was performed as previously described. […] After incubation at 30° C. for 60 minutes, the reaction was terminated by rapid filtration through glass fiber filters (Whatman GF/B), using a Brandel cell harvester (Brandel, Gaithersburg, Md.). The glass fiber filters were pre-soaked in 0.5% polyethyleneimine (PEI) for at least 1 hour at room temperature (˜23° C.). Filters were washed 4 times with 4 mL of ice-cold 50 mM Tris-C1, pH 8.0. Radioactivity was quantified by liquid scintillation counting using a Packard model 1600 CA scintillation counter.

HT-29 = experiment: Cytotoxicity assay HT-29; format: cell-based; settings: Homo sapiens, HU Colorectal, read-out: IC50 (SE) growth inhibition
Protocol: (§2) Multi-plex cytotoxicity assays were performed by the Keck-UWCCC Small Molecule Screening Facility (Madison, Wis.). Specific methodology can be found online at http://hts.wisc.edu/Resources.htm#mpa.

SKOV-3 = experiment: Cytotoxicity assay SKOV-3; format: cell-based; settings: Homo sapiens, SK-OV-3, HU Ovarian, read-out: IC50 (SE) growth inhibition
Protocol: as §2

MCP10A = experiment: Cytotoxicity assay MCP10A; format: cell-based; settings: Homo sapiens, HU Breast, read-out: IC50 (SE) growth inhibition
Protocol: as §2

sigma-2 receptor [6] = biological target: T2, sigma-2 receptor; design: from tissue; host or cells: rat liver membranes; settings: from Fontanilla et al. Biochemistry 2008; cited from earlier work
MCF7 = experiment: Cytotoxicity assay MCF7; format: cell-based; settings: Homo sapiens, HU Breast, read-out: IC50 (SE) growth inhibition
Protocol: as §2

SF268 = experiment: Cytotoxicity assay SF268; format: cell-based; settings: Homo sapiens, SF-268, HU CNS, read-out: IC50 (SE) growth inhibition
Protocol: as §2

HI299 = experiment: Cytotoxicity assay HI299; format: cell-based; settings: Homo sapiens, HU Lung, read-out: IC50 (SE) growth inhibition
Protocol: as §2

MB-MDA-231 = experiment: Cytotoxicity assay MB-MDA-231; format: cell-based; settings: Homo sapiens, HU Breast, read-out: IC50 (SE) growth inhibition
Protocol: as §2

HCT-45 = experiment: Cytotoxicity assay HCT-45; format: cell-based; settings: Homo sapiens, HU Colorectal, read-out: IC50 (SE) growth inhibition
Protocol: as §2

NCI-H460 = experiment: Cytotoxicity assay NCI-H460; format: cell-based; settings: Homo sapiens, HU lung, read-out: IC50 (SE) growth inhibition
Protocol: as §2

Du145 = experiment: Cytotoxicity assay Du145; format: cell-based; settings: Homo sapiens, DU-145, HU Prostate, read-out: IC50 (SE) growth inhibition
Protocol: as §2

A549 = experiment: Cytotoxicity assay A549; format: cell-based; settings: Homo sapiens, HU lung, read-out: IC50 (SE) growth inhibition
Protocol: as §2

sigma-1 receptor [7] = biological target: T1, sigma-1 receptor; design: from tissue; host or cells: guinea pig liver membranes; settings: from Fontanilla et al. Biochemistry 2008; cited from earlier work
sigma-1 receptor [8] = biological target: T7, sigma-1 receptor (Rattus norvegicus, UniProt Q9R0C9); experiment: Protection of [125I]-IACoc photolabeling in rat liver membranes; format: binding; settings: even at 50 and 100 μM
T7 construct: from tissue; host or cells: rat liver membranes
T7 sequence (Q9R0C9 whole entry): as the sequence (Q9R0C9 whole entry partner) above
Protocol: Rat liver membranes (100 μg/lane) were suspended in the presence or absence of the protecting drugs. […] Percent band intensities are shown compared to controls performed in the absence of protecting ligand (−).

tumor cell lines = experiment: Cytotoxicity assays, various tumor cell lines (statements in words); format: cell-based, human
Protocol: Because sigma-1 receptors are overexpressed in numerous tumor cell lines, which include breast cancer, lung carcinoma, renal carcinoma, colon carcinoma, sarcoma, brain tumors, melanoma, glioblastoma, neuroblastoma, and prostate cancer, the ability of the compounds to inhibit the growth of various tumor cell lines were tested.
as §2

NCCc1ccccc1 [Phenethylamine] gave a Kd (sigma-1 receptor [1]) of 97.4 µM and a Kd (sigma-2 receptor [2]) of 7.31 µM.

In the case of CCCNCCc1ccc([N+](=O)[O-])cc1 [Compound 7, N-propyl-N-3-(4-nitophenyl)-ethylamine], the melting point is reported as 142 to 144 °C, the Kd (sigma-2 receptor [3]) is reported as 53.6 µM and the “Ratio (σ2/σ1)” value (sigma-1 receptor [4]) is reported as 23.8.

For CCCCNCCCc1ccccc1 [Compound 1a, N-(3-Phenylpropyl)butan-1-amine], the Ki (σ-1 Sites) was 0.073 µM, the “σ-1 selectivity σ-2 Ki/σ-1 Ki” value (σ-1 Sites; σ-2 rat liver / σ-1 guinea pig liver membranes) was 2 and the EC50 (Kv 1.4 K+ channel) was 50 µM. For the same compound, the Ki (σ-2 Sites) was 0.153 µM and the Ki ([5]; [3H]-(+)-pentazocine) was 0.205 ± 0.0185 µM.

For CCCN(CCCc1ccc(F)cc1)CCc1ccc(N)cc1 [Compound 20, N-propyl-N-(4-aminophenyl-ethyl)-3-(4-fluorophenyl)propylamine], the IC50 (HT-29) was > 100 µM, the IC50 (SKOV-3) was 20.2 µM and the IC50 (MCP10A) was > 100 µM. The Kd (sigma-2 receptor [6]) was 0.12 µM, the IC50 (MCF7) was 41.3 µM and the IC50 (SF268) was > 100 µM. The IC50 (HI299) was > 100 µM, the IC50 (MB-MDA-231) was 86.1 µM and the IC50 (HCT-45) was > 100 µM. The IC50 (NCI-H460) was 44.8 µM, the IC50 (Du145) was > 100 µM and the IC50 (A549) was > 100 µM. The Kd (sigma-1 receptor [7]) was 2.59 µM and the “Ratio (σ2/σ1)” value (sigma-1 receptor [7]) was 0.046^c.

With NCCc1ccc(O)cc1 [Tyramine] the Kd (sigma-1 receptor [1]; (+)-[3H]-pentazocine 10 nM, read-out: Sigma-1R KD) was > 30000 µM.

For CCCCCCCNCCCc1ccccc1 [Compound 1c, N-(3-Phenylpropyl)heptane-1-amine], the Ki (σ-1 Sites) was 0.015 µM, the EC50 (Kv 1.4 K+ channel) was 10 µM and the Ki (σ-2 Sites) was 0.033 µM. For the same compound, the Ki ([5]; [3H]-(+)-pentazocine) was 0.0184 µM.

For CNCCc1c[nH]c2ccccc12 [N-methyltryptamine], the “protection of sigma-1 receptor [125I]-IACoc photolabeling” value (sigma-1 receptor [8]) was “protected minimally”.

For CCCCN(CCCC)C(=O)CCc1ccc(F)cc1 [Compound 5, N,N-Dibutyl-3-(4-fluorophenyl)propionamide], the melting point was 162 to 164 °C, the Kd (sigma-2 receptor [3]) was 126 µM and the “Ratio (σ2/σ1)” value (sigma-1 receptor [4]) was 3.94. It also gave a Kd (sigma-1 receptor [4]) of 32.1 µM.

For CCCCCCCN [Heptylamine], the “average inhibition of Kv 1.4 K+ channel” value (Kv 1.4 K+ channel; concentrations up to 300 μM, HEK-293) was 15% and the Ki ([5]; [3H]-(+)-pentazocine 10 nM) was 21.4 µM and 21 µM.

With CCCN(CCCc1ccc(F)cc1)Cc1ccc(N)cc1 [Compound 17, N-Propyl-N-(4-amino-benzyl)-3-(4-fluorophenyl)propylamine] the IC50 (HT-29) was > 100 µM, the IC50 (SKOV-3) was > 100 µM and the IC50 (MCP10A) was > 100 µM. For the same compound, the IC50 (MCF7) was > 100 µM, the Kd (sigma-2 receptor [3]) was 2.15 µM and the IC50 (SF268) was > 100 µM. The IC50 (HI299) was > 100 µM, the “Ratio (σ2/σ1)” value (sigma-1 receptor [4]) was 13.11 ^ and the Kd (sigma-1 receptor [4]) was 0.164 µM. For the same compound, the IC50 (MB-MDA-231) was > 100 µM, the IC50 (HCT-45) was > 100 µM and the IC50 (NCI-H460) was > 100 µM. For the same compound, the IC50 (Du145) was > 100 µM, the IC50 (A549) was > 100 µM and the “cytotoxicity / tumor cell growth inhibition” value (tumor cell lines) was “lacked any cytotoxic properties”.
